The subject of one assay is HCT-116 cell line. Briefly: Inhibition of cell growth, tetrazolium salt (MTT) assay. The format is cell-based. Conditions: Homo sapiens, HCT-116, 120 h, MTT, three to five days, read-out: HCT-116 IC50. In short, it runs like this:
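First, cells were seeded in McCoy's 5A medium and held 4 h. Next, inhibitor concentrations in 0.5% (v/v) DMSO were applied for three to five days at 37° C, 5% CO2. Finally, after 4 h with 0.2 mg/mL MTT and medium removal, solubilized formazan was measured at 540 nm.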

The target in assay [1] is human CDK4 and genetically truncated (1-264) cyclin D3 (Homo sapiens, UniProt P11802). Briefly: Inhibition of CDK4/Cyclin D Retinoblastoma Kinase Activity. The format is biochemical. Conditions: apparent Ki, CDK4/truncated cyclin D3, Rb fragment substrate, 25 μM ATP. Put shortly: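 Apparent Ki values come from competitive or competitive tight-binding inhibition fits of background-corrected 32P/33P incorporation into His-tagged Rb fragment (386-928), captured on nitrocellulose. Reaction: 5 nM insect-cell-expressed human CDK4 with cyclin D3 (1-264), 25 μM ATP, pH 7.4 HEPES, 2% DMSO, 30° C., 20 min, extended to 60 min for tight-binding inhibitors.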
Sequence of human CDK4 and genetically truncated (1-264) cyclin D3 (P11802 whole entry, the tested form may be a part): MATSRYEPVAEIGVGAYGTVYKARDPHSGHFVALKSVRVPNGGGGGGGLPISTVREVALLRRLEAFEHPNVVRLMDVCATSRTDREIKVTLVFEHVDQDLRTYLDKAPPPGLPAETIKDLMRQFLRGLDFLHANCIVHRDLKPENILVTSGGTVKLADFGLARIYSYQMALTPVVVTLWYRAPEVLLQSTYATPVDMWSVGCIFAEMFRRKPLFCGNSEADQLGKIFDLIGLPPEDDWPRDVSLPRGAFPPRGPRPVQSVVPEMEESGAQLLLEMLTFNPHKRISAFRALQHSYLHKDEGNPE
Sequence of human CDK4 and genetically truncated (1-264) cyclin D3 (P30281 1-264 partner): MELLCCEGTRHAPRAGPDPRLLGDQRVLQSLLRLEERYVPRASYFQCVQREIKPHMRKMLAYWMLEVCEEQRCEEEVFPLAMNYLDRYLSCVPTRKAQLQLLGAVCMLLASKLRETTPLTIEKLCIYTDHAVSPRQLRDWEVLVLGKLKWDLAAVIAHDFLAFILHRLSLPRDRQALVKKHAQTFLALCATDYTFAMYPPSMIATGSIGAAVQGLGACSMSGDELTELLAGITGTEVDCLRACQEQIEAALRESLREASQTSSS

Another assay has as its target CDK2/Cyclin A (Homo sapiens, UniProt P24941). As to the kind of experiment: Inhibition of CDK2/Cyclin A Retinoblastoma Kinase Activity. The format is biochemical. Conditions: apparent Ki, CDK2/proteolyzed cyclin A, Rb fragment substrate, 25 μM ATP. In short, it runs like this:
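Radiometric filter-binding readout of phosphate transfer to an Rb substrate fragment by purified CDK2/truncated cyclin A at 10 or 19 nM. Run at pH 7.4 with 25 μM ATP, 30 °C, 60–75 min, linear rates; background without enzyme subtracted, Ki from competitive-inhibition models.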

Each structure is given as a SMILES string. Counter-ions that a name gives are not always drawn. Like-named read-outs stand apart in the source and are kept apart here. Where only a bound is given, the exact number is not on record here.

For orientation: IC50 means the concentration at which inhibition is half-maximal. In the case of `CC(=O)Nc1ccc(S(=O)(=O)N2CCC(Nc3nc(N)c(C(=O)c4c(F)cccc4F)s3)CC2)cc1` [Example F5, N-(4-{4-[4-Amino-5-(2,6-difluoro-benzoyl)-thiazol-2-ylamino]-piperidine-1-sulfonyl}-phenyl)-acetamide], the IC50 with HCT-116 cell line (first HCT-116 column (c4)) turned out to be 500 nM; with HCT-116 cell line (second HCT-116 column (c5)) it was 1300 nM. Also, the Ki is 1 nM in assay [1] and less than 1 nM on CDK2/Cyclin A.
On the same counts, the results for `Nc1nc(NC2CCN(S(=O)(=O)c3ccc(-c4ccccn4)s3)CC2)sc1C(=O)c1c(F)cccc1F` [Example F6, 1-{4-Amino-2-[1-(5-pyridin-2-yl-thiophene-2-sulfonyl)-piperidin-4-ylamino]-thiazol-5-yl}-1-(2,6-difluoro-phenyl)-methanone] are 170 nM, 450 nM, 0.46 nM and 0.43 nM.
On the same counts, the results for `COc1ccc(S(=O)(=O)N2CCC(Nc3nc(N)c(C(=O)c4c(F)cccc4F)s3)CC2)cc1` [Example F7, 1-{4-Amino-2-[1-(4-methoxy-benzenesulfonyl)-piperidin-4-ylamino]-thiazol-5-yl}-1-(2,6-difluoro-phenyl)-methanone] are 190 nM, 460 nM, 2.5 nM and 0.8 nM.
Take `COc1ccc(S(=O)(=O)N2CCC(Nc3nc(N)c(C(=O)c4c(F)cccc4F)s3)CC2)cc1OC` [Example F8, 1-{4-Amino-2-[1-(3,4-dimethoxy-benzenesulfonyl)-piperidin-4-ylamino]-thiazol-5-yl}-1-(2,6-difluoro-phenyl)-methanone]: the IC50 came to 160 nM in the assay with HCT-116 cell line (first HCT-116 column (c4)) and 290 nM with HCT-116 cell line (second HCT-116 column (c5)). For the same compound, the results for the Ki (in assay [1]; at CDK2/Cyclin A) were 3 nM and less than 1 nM, respectively.
On the same counts, the results for `N#Cc1ccccc1S(=O)(=O)N1CCC(Nc2nc(N)c(C(=O)c3c(F)cccc3F)s2)CC1` [Example F9, 2-{4-[4-Amino-5-(2,6-difluoro-benzoyl)-thiazol-2-ylamino]-piperidine-1-sulfonyl}-benzonitrile] are 140 nM, 250 nM, 3.6 nM and 2 nM.
On the same counts, the results for `COC(=O)c1sccc1S(=O)(=O)N1CCC(Nc2nc(N)c(C(=O)c3c(F)cccc3F)s2)CC1` [Example F10, 3-{4-[4-Amino-5-(2,6-difluoro-benzoyl)-thiazol-2-ylamino]-piperidine-1-sulfonyl}-thiophene-2-carboxylic acid methyl ester] are 280 nM, less than 5000 nM, 5.6 nM and 7.9 nM.
`CC(C)S(=O)(=O)N1CCC(Nc2nc(N)c(C(=O)c3c(F)cccc3F)s2)CC1` [Example F11, 1-{4-Amino-2-[1-(propane-2-sulfonyl)-piperidin-4-ylamino]-thiazol-5-yl}-1-(2,6-difluoro-phenyl)-methanone]: the values for the IC50 with HCT-116 cell line (first HCT-116 column (c4)) and in the assay on HCT-116 cell line (second HCT-116 column (c5)) were 180 nM and 450 nM, respectively. In addition, the Ki in assay [1] was 1.1 nM; on CDK2/Cyclin A, 1.6 nM.
On the same counts, the results for `CS(=O)(=O)c1ccc(S(=O)(=O)N2CCC(Nc3nc(N)c(C(=O)c4c(F)cccc4F)s3)CC2)cc1` [Example F12, 1-{4-Amino-2-[1-(4-methanesulfonyl-benzenesulfonyl)-piperidin-4-ylamino]-thiazol-5-yl}-1-(2,6-difluoro-phenyl)-methanone] are 190 nM, 500 nM, 1.3 nM and 0.37 nM.
Consider `Nc1nc(NC2CCN(S(=O)(=O)c3cc(Cl)sc3Cl)CC2)sc1C(=O)c1c(F)cccc1F` [Example F13, 1-{4-Amino-2-[1-(2,5-dichloro-thiophene-3-sulfonyl)-piperidin-4-ylamino]-thiazol-5-yl}-1-(2,6-difluoro-phenyl)-methanone], for which the half-inhibitory concentration (IC50) with HCT-116 cell line (first HCT-116 column (c4)) is 610 nM; with HCT-116 cell line (second HCT-116 column (c5)) it was 2600 nM. Further, the Ki in assay [1] was 5.8 nM; on CDK2/Cyclin A it was 8.7 nM.
In the case of `Nc1nc(NC2CCN(S(=O)(=O)c3ccc(C(=O)O)cc3)CC2)sc1C(=O)c1c(F)cccc1F` [Example F14, 4-{4-[4-Amino-5-(2,6-difluoro-benzoyl)-thiazol-2-ylamino]-piperidine-1-sulfonyl}-benzoic Acid], the IC50 in the assay on HCT-116 cell line (first HCT-116 column (c4)) and with HCT-116 cell line (second HCT-116 column (c5)) was less than 5000 nM throughout. In addition, the Ki in assay [1] turned out to be 14 nM; at CDK2/Cyclin A, 2 nM.
As to `Cc1ccc(S(=O)(=O)N2CCC(Nc3nc(N)c(C(=O)c4c(F)cccc4F)s3)CC2)cc1` [Example F15, {4-Amino-2-[1-(toluene-4-sulfonyl)-piperidin-4-ylamino]-thiazol-5-yl}-(2,6-difluoro-phenyl)-methanone], the IC50 stood at 410 nM in the assay on HCT-116 cell line (first HCT-116 column (c4)) and 1200 nM with HCT-116 cell line (second HCT-116 column (c5)). The Ki in assay [1] was 3.4 nM; on CDK2/Cyclin A it was 2.8 nM.
On the same counts, the results for `Nc1nc(NC2CCN(S(=O)(=O)c3ccc(F)cc3)CC2)sc1C(=O)c1c(F)cccc1F` [Example F17, 1-{4-Amino-2-[1-(4-fluoro-benzenesulfonyl)-piperidin-4-ylamino]-thiazol-5-yl}1-(2,6-difluoro-phenyl)-methanone] are 70 nM, 230 nM, 1.4 nM and less than 1 nM.
Consider `N#Cc1ccc(S(=O)(=O)N2CCC(Nc3nc(N)c(C(=O)c4c(F)cccc4F)s3)CC2)cc1` [Example F18, 4-{4-[4-Amino-5-(2,6-difluoro-benzoyl)-thiazol-2-ylamino]-piperidine-1-sulfonyl}benzonitrile], for which the IC50 in the assay with HCT-116 cell line (first HCT-116 column (c4)) turned out to be 300 nM; in the assay on HCT-116 cell line (second HCT-116 column (c5)) it was 500 nM. The Ki is 0.98 nM in assay [1] and less than 1 nM on CDK2/Cyclin A.
Take `CN(C)c1ccc(S(=O)(=O)N2CCC(Nc3nc(N)c(C(=O)c4c(F)cccc4F)s3)CC2)cn1` [Example F19, 1-{4-Amino-2-[1-(6-dimethylamino-pyridine-3-sulfonyl)-piperidin-4-ylamino]-thiazol-5-yl}-1-(2,6-difluoro-phenyl)-methanone]: the IC50 is 48 nM in the assay with HCT-116 cell line (first HCT-116 column (c4)) and 200 nM in the assay with HCT-116 cell line (second HCT-116 column (c5)). Further, the results for the Ki (in assay [1]; at CDK2/Cyclin A) were 1.7 nM and 3.2 nM, respectively.
On the same counts, the results for `Nc1nc(NC2CCN(S(=O)(=O)c3ccc(N4CCOCC4)nc3)CC2)sc1C(=O)c1c(F)cccc1F` [Example F20, 1-{4-Amino-2-[1-(6-morpholin-4-yl-pyridine-3-sulfonyl)-piperidin-4-ylamino]-thiazol-5-yl}-1-(2,6-difluoro-phenyl)-methanone Hydrochloride] are 170 nM, 1300 nM, 1.3 nM and 1.4 nM.
On the same counts, the results for `COc1ccc(S(=O)(=O)N2CCC(Nc3nc(N)c(C(=O)c4c(F)cccc4F)s3)CC2)cn1` [Example F22, 1-{4-Amino-2-[1-(6-methoxy-pyridine-3-sulfonyl)-piperidin4-ylamino]-thiazol-5-yl}-1-(2,6-difluoro-phenyl)-methanone] are 80 nM, 230 nM, 1.2 nM and 0.84 nM.
Consider `Nc1nc(NC2CCN(S(=O)(=O)c3cccnc3)CC2)sc1C(=O)c1c(F)cccc1F` [Example F23, 1-{4-Amino-2-[1-(pyridine-3-sulfonyl)-piperidin-4-ylamino]-thiazol-5-yl}-1-(2,6-difluoro-phenyl)-methanone], for which the IC50 in the assay on HCT-116 cell line (first HCT-116 column (c4)) was determined as 130 nM; in the assay on HCT-116 cell line (second HCT-116 column (c5)), 300 nM. The Ki in assay [1] amounted to 4.8 nM; at CDK2/Cyclin A it was 2.8 nM.
With `CN1CCCC1c1ccc(S(=O)(=O)N2CCC(Nc3nc(N)c(C(=O)c4c(F)cccc4F)s3)CC2)cc1` (centres unmarked) [Example F24, 1-[4-Amino-2-{1-[4-(1-methyl-pyrrolidin-2-y)-benzenesulfonyl]-piperidin-4-ylamino}-thiazol-5-yl)-1-(2,6-difluoro-phenyl)-methanone Dihydrochloride], the IC50 with HCT-116 cell line (first HCT-116 column (c4)) came to 590 nM; in the assay with HCT-116 cell line (second HCT-116 column (c5)) it was 1600 nM. The results for the Ki (in assay [1]; at CDK2/Cyclin A) were 0.34 nM and less than 1 nM, respectively.
On the same counts, the results for `CN1CCC(c2ccc(S(=O)(=O)N3CCC(Nc4nc(N)c(C(=O)c5c(F)cccc5F)s4)CC3)cc2)C1` (centres unmarked) [Example F25, 1-(4-Amino-2-[1-[4-(1-methyl-pyrrolidin-3-yl)-benzenesulfonyl]-piperidin-4-ylamino]-thiazol-5-yl}-1-(2,6-difluoro-phenyl)-methanone Dihydrochloride] are 80 nM, 300 nM, 0.93 nM and 1.5 nM.
On the same counts, the results for `CN(C)CCS(=O)(=O)N1CCC(Nc2nc(N)c(C(=O)c3c(F)cccc3F)s2)CC1` [Example F26, {4-Amino-2-[1-(2-dimethylamino-ethanesulfonyl)-piperidin-4-ylamino]-thiazol-5-yl}-(2,6-difluoro-phenyl)-methanone] are 280 nM, 650 nM, 2.2 nM and 15 nM.
